In patent publication US12581252B2, “Substituted pyrrolo[3,4-b]pyridines as PI3K-α inhibitors” (Relay Therapeutics, Inc., priority 2020, dated 2026):

Key:
[1] = cells; settings: Homo sapiens, MCF-10A, read-out: MCF10A IC50
[2] = target: H1047R PIK3CA enzyme (Homo sapiens, UniProt P42336, H1047R); assay: ADP-Glo Biochemical PIK3CA Kinase Assay
Chain of H1047R PIK3CA enzyme (P42336 whole entry H1047R): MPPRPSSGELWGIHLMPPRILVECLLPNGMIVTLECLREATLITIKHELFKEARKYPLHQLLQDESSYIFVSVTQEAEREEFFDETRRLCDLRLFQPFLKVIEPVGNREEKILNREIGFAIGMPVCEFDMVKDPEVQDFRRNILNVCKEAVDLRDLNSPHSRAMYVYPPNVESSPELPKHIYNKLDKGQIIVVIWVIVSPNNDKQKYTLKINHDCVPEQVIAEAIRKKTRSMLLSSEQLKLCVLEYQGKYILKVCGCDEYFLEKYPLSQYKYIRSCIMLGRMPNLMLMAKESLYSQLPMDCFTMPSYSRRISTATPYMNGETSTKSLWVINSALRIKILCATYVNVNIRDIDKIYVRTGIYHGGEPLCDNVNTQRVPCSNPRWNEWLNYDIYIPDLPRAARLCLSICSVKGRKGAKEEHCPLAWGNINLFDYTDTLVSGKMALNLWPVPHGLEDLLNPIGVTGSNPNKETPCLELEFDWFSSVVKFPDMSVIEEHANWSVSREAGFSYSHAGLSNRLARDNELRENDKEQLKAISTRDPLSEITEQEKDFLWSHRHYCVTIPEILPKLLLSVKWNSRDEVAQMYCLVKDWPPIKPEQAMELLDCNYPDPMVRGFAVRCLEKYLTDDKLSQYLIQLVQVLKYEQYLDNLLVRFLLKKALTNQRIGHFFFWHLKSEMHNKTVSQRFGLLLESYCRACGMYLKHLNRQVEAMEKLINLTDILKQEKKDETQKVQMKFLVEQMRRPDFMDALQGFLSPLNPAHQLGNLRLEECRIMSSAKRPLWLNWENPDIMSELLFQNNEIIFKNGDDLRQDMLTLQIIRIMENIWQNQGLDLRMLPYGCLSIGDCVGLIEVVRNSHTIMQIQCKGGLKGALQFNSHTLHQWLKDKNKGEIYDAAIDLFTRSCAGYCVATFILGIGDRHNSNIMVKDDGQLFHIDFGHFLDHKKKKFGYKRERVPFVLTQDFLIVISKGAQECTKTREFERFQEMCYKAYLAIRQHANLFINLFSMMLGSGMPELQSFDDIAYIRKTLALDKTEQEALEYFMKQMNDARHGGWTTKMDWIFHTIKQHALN
Chain of H1047R PIK3CA enzyme (P27986 whole entry partner): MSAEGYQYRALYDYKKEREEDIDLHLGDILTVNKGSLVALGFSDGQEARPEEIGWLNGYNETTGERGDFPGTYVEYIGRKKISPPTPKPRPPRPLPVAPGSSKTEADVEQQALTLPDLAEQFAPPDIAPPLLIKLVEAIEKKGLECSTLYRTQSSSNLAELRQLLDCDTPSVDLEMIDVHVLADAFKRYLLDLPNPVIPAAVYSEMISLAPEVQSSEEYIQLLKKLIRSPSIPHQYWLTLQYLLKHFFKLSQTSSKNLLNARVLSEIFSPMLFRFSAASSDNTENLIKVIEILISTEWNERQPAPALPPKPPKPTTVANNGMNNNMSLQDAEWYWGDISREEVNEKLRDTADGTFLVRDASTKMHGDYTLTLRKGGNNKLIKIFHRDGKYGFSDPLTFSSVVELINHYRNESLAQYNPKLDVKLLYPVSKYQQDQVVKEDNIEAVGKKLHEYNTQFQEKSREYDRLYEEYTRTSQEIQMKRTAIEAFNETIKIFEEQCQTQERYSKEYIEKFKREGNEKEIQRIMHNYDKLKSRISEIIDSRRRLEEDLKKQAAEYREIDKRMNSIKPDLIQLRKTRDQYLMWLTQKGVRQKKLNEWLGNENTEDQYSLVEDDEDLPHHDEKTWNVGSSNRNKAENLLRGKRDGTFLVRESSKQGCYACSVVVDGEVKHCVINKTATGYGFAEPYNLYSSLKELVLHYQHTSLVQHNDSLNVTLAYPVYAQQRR

O=C(Nc1cc(-c2cnc3ccccc3n2)cc2c1C(c1cc(F)ccc1Cl)NC2=O)c1cc(F)cc(C(F)(F)F)c1 (stereo not drawn) [Compound I-948]
IC50 [1]: < 1 µM
IC50 [2]: ≤ 0.1 µM

O=C1N[C@@H](c2cc(F)ccc2Cl)c2c(NC(=O)N3CCc4cc(F)ccc43)cc(-c3cnn(C(F)F)c3)cc21 (single isomer, unassigned) [Compound I-2357]
IC50 [1]: < 1 µM
IC50 [2]: ≤ 0.1 µM

C[C@]1(O)CN(C(=O)Nc2cccc3c2[C@H](c2cc(F)ccc2Cl)NC3=O)c2ccccc21 (single isomer, unassigned) [Compound I-2205]
IC50 [1]: < 1 µM
IC50 [2]: ≤ 0.1 µM

Cc1ccccc1C1NC(=O)c2cc(N)cc(NC(=O)c3nsc4ccccc34)c21 (stereo not drawn) [Compound I-50, N-[6-Amino-3-(2-methylphenyl)-1-oxo-2,3-dihydro-1H-isoindol-4-yl]-1,2-benzothiazole-3-carboxamide]
IC50 [1]: < 1 µM
IC50 [2]: ≤ 0.1 µM

CSCc1cc(NC(=O)c2cc(F)cc(C(F)(F)F)c2)c2c(c1)C(=O)NC2c1cc(F)ccc1Cl (stereo not drawn) [Compound I-914]
IC50 [1]: < 1 µM
IC50 [2]: ≤ 0.1 µM

O=C1NC(c2cc(F)ccc2Cl)c2c(NC(=O)N3CC(O)(C(F)(F)F)c4cc(F)ccc43)cccc21 (stereo not drawn) [Compound I-2474]
IC50 [1]: 1 to 5 µM
IC50 [2]: ≤ 0.1 µM

N#CCc1cc(NC(=O)N2C[C@](O)(C(F)(F)F)c3ccccc32)c2c(c1)C(=O)N[C@@H]2c1cc(F)ccc1Cl (single isomer, unassigned) [Compound I-2605]
IC50 [1]: < 1 µM
IC50 [2]: ≤ 0.1 µM

O=C(Nc1cc(-n2cc(F)cn2)cc2c1C(c1cc(F)ccc1Cl)NC2=O)c1cc(F)cc(C(F)(F)F)c1 (stereo not drawn) [Compound I-1146]
IC50 [1]: < 1 µM
IC50 [2]: ≤ 0.1 µM

O=C1N[C@H](c2cc(F)ccc2Cl)c2c(NC(=O)N3C[C@H](O)c4cc(F)ccc43)cc(-n3ccnn3)cc21 (single isomer, unassigned) [Compound I-2369]
IC50 [1]: 1 to 5 µM
IC50 [2]: ≤ 0.1 µM

O=C(Nc1cc(-c2cn3ccnc3cn2)cc2c1C(c1cc(F)ccc1Cl)NC2=O)c1cc(F)cc(C(F)(F)F)c1 (stereo not drawn) [Compound I-946]
IC50 [1]: < 1 µM
IC50 [2]: ≤ 0.1 µM

Cc1noc2ncc(-c3cc(NC(=O)c4cc(F)cc(C(F)(F)F)c4)c4c(c3)C(=O)NC4c3cc(F)ccc3Cl)cc12 (stereo not drawn) [Compound I-1039]
IC50 [1]: < 1 µM
IC50 [2]: ≤ 0.1 µM

O=C1N[C@H](c2cc(F)ccc2Cl)c2c(NC(=O)N3C[C@@](O)(C(F)(F)F)c4cc(F)ccc43)cc(N3CCCC3=O)cc21 (single isomer, unassigned) [Compound I-2665]
IC50 [1]: < 1 µM
IC50 [2]: ≤ 0.1 µM

Cc1ncncc1-c1cc(NC(=O)c2cc(F)cc(C(F)(F)F)c2)c2c(c1)C(=O)NC2c1cc(F)ccc1Cl (stereo not drawn) [Compound I-985]
IC50 [1]: < 1 µM
IC50 [2]: ≤ 0.1 µM

O=C1NC(c2cc(F)ccc2Cl)c2c(Nc3nccc4c(Cl)cc(F)cc34)cc(Br)cc21 (stereo not drawn) [Compound I-959]
IC50 [1]: < 1 µM
IC50 [2]: 0.1 to 0.5 µM

CC(C)(O)Cc1cc(NC(=O)c2cc(F)cc(Cl)c2)c2c(c1)C(=O)N[C@H]2c1cc(F)ccc1Cl [Compound I-1080]
IC50 [1]: < 1 µM
IC50 [2]: ≤ 0.1 µM

O=C(Nc1cc(-c2ccc3ncnn3c2)cc2c1[C@H](c1cc(F)ccc1Cl)NC2=O)c1cc(F)cc(C(F)(F)F)c1 (single isomer, unassigned) [Compound I-945]
IC50 [1]: < 1 µM
IC50 [2]: ≤ 0.1 µM

O=C1N[C@@H](c2cc(F)ccc2Cl)c2c(NC(=O)N3C[C@@H](O)c4cc(F)c(F)cc43)cccc21 (single isomer, unassigned) [Compound I-2293]
IC50 [1]: < 1 µM
IC50 [2]: ≤ 0.1 µM

COCCc1cc(NC(=O)c2cc(F)cc(C(F)(F)F)c2)c2c(c1)C(=O)NC2c1cc(F)ccc1Cl (stereo not drawn) [Compound I-1020]
IC50 [1]: < 1 µM
IC50 [2]: ≤ 0.1 µM

O=C1NCc2cc(-c3cc(NC(=O)c4cc(F)cc(C(F)(F)F)c4)c4c(c3)C(=O)NC4c3cc(F)ccc3Cl)ccc2O1 (stereo not drawn) [Compound I-981]
IC50 [1]: < 1 µM
IC50 [2]: ≤ 0.1 µM

O=C(Nc1cc(-c2cnc3ccnn3c2)cc2c1C(c1cc(F)ccc1Cl)NC2=O)c1cc(F)cc(C(F)(F)F)c1 (stereo not drawn) [Compound I-1047]
IC50 [1]: < 1 µM
IC50 [2]: ≤ 0.1 µM

O=C(Nc1cc(Br)cc2c1C(c1cc(F)ccc1Cl)NC2=O)c1cc(F)cc(C(F)(F)F)c1 (stereo not drawn) [Compound I-124]
IC50 [1]: 1 to 5 µM
IC50 [2]: ≤ 0.1 µM

N#Cc1ccc(-c2cc(NC(=O)c3cc(F)cc(C(F)(F)F)c3)c3c(c2)C(=O)NC3c2cc(F)ccc2Cl)cn1 (stereo not drawn) [Compound I-928]
IC50 [1]: < 1 µM
IC50 [2]: ≤ 0.1 µM

Cc1ccccc1C1NC(=O)c2cccc(NC(=O)c3csc4cnccc34)c21 (stereo not drawn) [Compound I-46]
IC50 [1]: 10 to 36 µM
IC50 [2]: 0.1 to 0.5 µM

O=C1N[C@@H](c2cc(F)ccc2Cl)c2c(NC(=O)N3C[C@](O)(C(F)(F)F)c4cc(F)ccc43)ccc(-n3ccnn3)c21 (single isomer, unassigned) [Compound I-2520]
IC50 [1]: < 1 µM
IC50 [2]: ≤ 0.1 µM

O=C(Nc1cc(-c2cnn(C3CC3)c2)cc2c1C(c1cc(F)ccc1Cl)NC2=O)c1cc(F)cc(C(F)(F)F)c1 (stereo not drawn) [Compound I-942]
IC50 [1]: < 1 µM
IC50 [2]: ≤ 0.1 µM

O=C1N[C@@H](c2cc(F)ccc2Cl)c2c(NC(=O)N3C[C@@](O)(C(F)(F)F)c4cc(F)ccc43)cccc21 (single isomer, unassigned) [Compound I-2518]
IC50 [1]: < 1 µM
IC50 [2]: ≤ 0.1 µM

O=C(Nc1cc(-c2ccn[nH]2)cc2c1[C@H](c1cc(F)ccc1Cl)NC2=O)c1cc(F)cc(C(F)(F)F)c1 [Compound I-865]
IC50 [1]: < 1 µM
IC50 [2]: ≤ 0.1 µM

O=C(Nc1cc(Br)cc2c1C(c1cc(F)ccc1C(F)(F)F)NC2=O)c1cc(F)cc(C(F)(F)F)c1 (stereo not drawn) [Compound I-1014]
IC50 [1]: < 1 µM
IC50 [2]: ≤ 0.1 µM

CC[C@@]1(O)CN(C(=O)Nc2cccc3c2[C@@H](c2cc(F)ccc2Cl)NC3=O)c2ccc(F)cc21 (single isomer, unassigned) [Compound I-2461]
IC50 [1]: < 1 µM
IC50 [2]: ≤ 0.1 µM

O=C(Nc1cc(CS(=O)(=O)C2CC2)cc2c1C(c1cc(F)ccc1Cl)NC2=O)c1cc(F)cc(C(F)(F)F)c1 (stereo not drawn) [Compound I-1081]
IC50 [1]: < 1 µM
IC50 [2]: ≤ 0.1 µM

CNc1cc(NC(=O)N2CC(O)(C(F)(F)F)c3cc(F)ccc32)c2c(c1C#N)C(=O)NC2c1cc(F)ccc1Cl (stereo not drawn) [Compound I-2587]
IC50 [1]: 1 to 5 µM
IC50 [2]: ≤ 0.1 µM

COc1c(F)cccc1-c1cc(NC(=O)c2cc(F)cc(C(F)(F)F)c2)c2c(c1)C(=O)NC2c1cc(F)ccc1Cl (stereo not drawn) [Compound I-1156]
IC50 [1]: < 1 µM
IC50 [2]: ≤ 0.1 µM

O=C(Nc1cc(NC2=NCCO2)cc2c1C(c1cc(F)ccc1Cl)NC2=O)c1cc(F)cc(C(F)(F)F)c1 (stereo not drawn) [Compound I-2256]
IC50 [1]: 1 to 5 µM
IC50 [2]: ≤ 0.1 µM

Cc1noc(C)c1Nc1cc(NC(=O)c2cc(F)cc(C(F)(F)F)c2)c2c(c1)C(=O)NC2c1cc(F)ccc1Cl (stereo not drawn) [Compound I-923]
IC50 [1]: < 1 µM
IC50 [2]: ≤ 0.1 µM

O=C(Nc1cc(-c2n[nH]c3ccccc23)cc2c1C(c1cc(F)ccc1Cl)NC2=O)c1cc(F)cc(C(F)(F)F)c1 (stereo not drawn) [Compound I-937]
IC50 [1]: 1 to 5 µM
IC50 [2]: 0.1 to 0.5 µM

O=C(Nc1cc(-c2ccc(=O)n(C3CC3)c2)nc2c1[C@H](c1cc(F)ccc1Cl)NC2=O)c1cc(F)cc(C(F)(F)F)c1 [Compound I-747]
IC50 [1]: < 1 µM
IC50 [2]: ≤ 0.1 µM

N#CC1(CNc2cc(NC(=O)c3cc(F)cc(C(F)(F)F)c3)c3c(c2)C(=O)N[C@H]3c2cc(F)ccc2Cl)CC1 [Compound I-868]
IC50 [1]: < 1 µM
IC50 [2]: ≤ 0.1 µM

O=C(Nc1cc(-c2n[nH]c3cccnc23)cc2c1C(c1cc(F)ccc1Cl)NC2=O)c1cc(F)cc(C(F)(F)F)c1 (stereo not drawn) [Compound I-936]
IC50 [1]: < 1 µM
IC50 [2]: ≤ 0.1 µM

CC(C)(O)c1cc(NC(=O)c2cc(F)cc(C(F)(F)F)c2)c2c(c1)C(=O)N[C@H]2c1cc(F)ccc1Cl [Compound I-189]
IC50 [1]: < 1 µM
IC50 [2]: ≤ 0.1 µM

Cc1nocc1Nc1cc(NC(=O)c2cc(F)cc(C(F)(F)F)c2)c2c(c1)C(=O)NC2c1cc(F)ccc1Cl (stereo not drawn) [Compound I-856]
IC50 [1]: < 1 µM
IC50 [2]: ≤ 0.1 µM

O=C1N[C@H](c2ccccc2Cl)c2c(NC(=O)c3csc4ccccc34)ccnc21 [Compound I-33]
IC50 [1]: 1 to 5 µM
IC50 [2]: 0.1 to 0.5 µM

O=C1NC(c2cc(F)ccc2Cl)c2c(NC(=O)N3CC(O)(C(F)(F)F)c4cc(F)ccc43)cc(Cl)cc21 (mixture of isomers) [Compound I-2482]
IC50 [1]: < 1 µM
IC50 [2]: ≤ 0.1 µM

Nc1cnc(-c2cc(NC(=O)c3cc(F)cc(C(F)(F)F)c3)c3c(c2)C(=O)NC3c2cc(F)ccc2Cl)cn1 (stereo not drawn) [Compound I-1102]
IC50 [1]: < 1 µM
IC50 [2]: ≤ 0.1 µM

O=C1N[C@@H](c2cc(F)ccc2Cl)c2c(NC(=O)N3C[C@](O)(C(F)(F)F)c4cc(F)ccc43)cc(C3COC3)cc21 (single isomer, unassigned) [Compound I-2655]
IC50 [1]: < 1 µM
IC50 [2]: ≤ 0.1 µM

O=C(Nc1cc(-c2cnsc2)cc2c1C(c1cc(F)ccc1Cl)NC2=O)c1cc(F)cc(C(F)(F)F)c1 (stereo not drawn) [Compound I-1068]
IC50 [1]: < 1 µM
IC50 [2]: ≤ 0.1 µM

O=C1COCc2cc(-c3cc(NC(=O)c4cc(F)cc(C(F)(F)F)c4)c4c(c3)C(=O)NC4c3cc(F)ccc3Cl)ccc2N1 (stereo not drawn) [Compound I-1043]
IC50 [1]: < 1 µM
IC50 [2]: ≤ 0.1 µM

O=C1NC(c2cc(F)ccc2Cl)c2c(NC(=O)N3CC(O)(C(F)F)c4cc(F)ccc43)cc(F)cc21 (stereo not drawn) [Compound I-2622]
IC50 [1]: 1 to 5 µM
IC50 [2]: ≤ 0.1 µM

O=C(Nc1cc(-c2cn3ncnc3cn2)cc2c1[C@H](c1cc(F)ccc1Cl)NC2=O)c1cc(F)cc(C(F)(F)F)c1 [Compound I-1441]
IC50 [1]: < 1 µM
IC50 [2]: ≤ 0.1 µM

O=C(Nc1cc(-c2cscn2)cc2c1[C@H](c1cc(F)ccc1Cl)NC2=O)c1cc(F)cc(C(F)(F)F)c1 [Compound I-1084]
IC50 [1]: < 1 µM
IC50 [2]: ≤ 0.1 µM

O=C(Nc1cc(-c2ccncc2F)cc2c1C(c1cc(F)ccc1Cl)NC2=O)c1cc(F)cc(C(F)(F)F)c1 (stereo not drawn) [Compound I-887]
IC50 [1]: < 1 µM
IC50 [2]: ≤ 0.1 µM

N#CCCc1cc(NC(=O)N2C[C@H](O)c3cc(F)ccc32)c2c(c1)C(=O)N[C@H]2c1cc(F)ccc1Cl (single isomer, unassigned) [Compound I-2346]
IC50 [1]: 1 to 5 µM
IC50 [2]: ≤ 0.1 µM
